Values of other authors, collected in US6486182B1, “Mutual prodrugs of amlodipine and atorvastatin” (Pfizer Inc, priority 1999, dated 2002).

What was measured:
[1] = test system: smooth muscle cell migration; conditions: see PCT/EP95/00847
[2] = test system: calcium channel; conditions: see PCT/EP94/02697

Structure (SMILES): CCOC(=O)C1=C(COCCN)NC(C)=C(C(=O)OC)C1c1ccccc1Cl (single isomer, unassigned) [R(+) isomer, Amlodipine]
- inhibition of smooth muscle cell migration [1]: potent inhibitor
- calcium channel blocking activity [2]: little or no calcium channel blocking activity
